# What was measured:
# [1] = system: maximal electroshock seizures; assay: Maximum Electroshock Seizure (MES) test, mice; type: in vivo; conditions: mice
# Experimental: (§1) In order to define anticonvulsant activity, screening tests were performed, using animal models of seizures. […] Each substance (after dissolving in methylcellulose) was normally tested in doses 30, 100, and 300 mg/kg body weight (b.w.) (mice) or in 30 and 50 mg/kg b.w. (rats) in two possible routes of administration: intraperitoneal (i.p.) or oral (p.o.). Appropriate tests were performed 0.5 and 4 h after administration of the compound. […] (mice) the tests were also performed in doses 10 and 3 mg/kg b.w.
# Maximum Electroshock Seizure (MES) test is an electric test, verifying activity towards generalized tonic-clonic seizures (grand mal epilepsy). […] Its procedure consists in administration to an animal a mentioned dose, and after 0.5 or 4 h attaching corneal electrodes (after anesthetic eye-drops: 0.5% tetracaine hydrochloride in 0.9% NaCl) and turning on electric current (60 Hz, 0.2 s, 50 mA (mice) or 150 mA (rats)). […] Normally, in the dose 30 mg/kg b.w. the test is done in 1 mouse after 0.5 or 4 h, in the dose 100 mg/kg b.w.—in 3 mice, and in the dose 300 mg/kg b.w.—in 1 mouse.
# [2] = system: neurotoxicity (rotarod); assay: Neurotoxicity test (TOX), rotarod, mice; type: in vivo
# Experimental: as §1
# It is performed with use of rotarod test. The animal is placed on a plastic rod (1 inch in diameter), rotating 6 rpm. The rod is placed on a level discouraging the animal to jump off. […] Neurotoxicity is stated if the animal cannot stay on the rod for 1 min. in any of 3 trials. Normally the test is performed in dose 30 mg/kg b.w. in 4 mice (0.5 h) and in 2 mice (4 h), in the dose 100 mg/kg b.w. in 8 mice (0.5 h) and in 4 mice (4 h) and in the dose 300 mg/kg b.w. in 4 mice (0.5 h) and 2 mice (4 h).
# [3] = dose 100 mg/kg b.w., time 0.5 h
# [4] = mice, dose 100 mg/kg b.w., time 0.5 h
# [5] = mice, dose 300 mg/kg b.w., time 0.5 h
# [6] = mice, dose 30 mg/kg b.w., 0.5 h
# [7] = mice, dose 100 mg/kg b.w., 0.5 h
# [8] = mice, dose 300 mg/kg b.w., 0.5 h
smiles,measurement,setting,value
"Cc1cccc(C)c1OCCN(C)C(C)CO.Cl (racemic) [Compound 14, R,S-2N-[(2,6-dimethylphenoxy)ethyl]-2N-methylamino-1-propanol hydrochloride]","MES, No. of protected animals/No. of used animals","[1]; dose 30 mg/kg b.w., time 0.5 h",1/1
same,"MES, No. of protected animals/No. of used animals",[1]; [3],1/1
same,"TOX, No. of animals exhibiting motor impairment/no. of used animals","[2]; mouse, in vivo, 30 mg/kg",1/4
same,"TOX, No. of animals exhibiting motor impairment/no. of used animals","[2]; mouse, in vivo, 100 mg/kg",8/8
same,"TOX, No. of animals exhibiting motor impairment/no. of used animals","[2]; mouse, in vivo, 300 mg/kg",4/4
"Cc1cccc(C)c1OCCN(C)CC(O)c1ccccc1.Cl (racemic) [Compound 22, R,S-2N-[(2,6-dimethylphenoxy)ethyl]-2N-methylamino-1-phenylethanol hydrochloride]","MES, No. of protected animals/No. of used animals",[1]; [3],2/2
same,"MES, No. of protected animals/No. of used animals","[1]; dose 100 mg/kg b.w., time 4 h",2/2
same,"TOX, No. of animals exhibiting motor impairment/no. of used animals",[2]; [4],8/8
same,"TOX, No. of animals exhibiting motor impairment/no. of used animals",[2]; [5],4/4
"Cc1cccc(OCCCNC(C)CO)c1C (racemic) [Compound 46, R,S-2N-[(2,3-dimethylphenoxy)propyl]amino-1-propanol]","MES, No. of protected animals/No. of used animals",[1]; [3],3/3
same,"TOX, No. of animals exhibiting motor impairment/no. of used animals","[2]; mouse, in vivo, 100 mg/kg",8/8
same,"TOX, No. of animals exhibiting motor impairment/no. of used animals","[2]; mouse, in vivo, 300 mg/kg",4/4
"CCC(CO)NCCCOc1cccc(C)c1C (racemic) [Compound 48, R,S-2N-[(2,3-dimethylphenoxy)propyl]amino-1-butanol]","MES, No. of protected animals/No. of used animals",[1]; [3],3/3
same,"TOX, No. of animals exhibiting motor impairment/no. of used animals","[2]; mouse, in vivo, 100 mg/kg",8/8
same,"TOX, No. of animals exhibiting motor impairment/no. of used animals","[2]; mouse, in vivo, 300 mg/kg",4/4
"Cc1cccc(OCCCNCC(O)c2ccccc2)c1C (racemic) [Compound 49, R,S-2N-[(2,3-dimethylphenoxy)propyl]amino-1-phenylethanol]","MES, No. of protected animals/No. of used animals","[1]; dose 300 mg/kg b.w., time 0.5 h",1/1
same,"TOX, No. of animals exhibiting motor impairment/no. of used animals","[2]; mice, dose 30 mg/kg b.w., time 0.5 h",1/4
same,"TOX, No. of animals exhibiting motor impairment/no. of used animals","[2]; mice, dose 30 mg/kg b.w., time 4 h",1/2
same,"TOX, No. of animals exhibiting motor impairment/no. of used animals",[2]; [4],6/8
same,"TOX, No. of animals exhibiting motor impairment/no. of used animals","[2]; mice, dose 100 mg/kg b.w., time 4 h",3/4
same,"TOX, No. of animals exhibiting motor impairment/no. of used animals",[2]; [5],4/4
same,"TOX, No. of animals exhibiting motor impairment/no. of used animals","[2]; mice, dose 300 mg/kg b.w., time 4 h",2/2
"Cc1cccc(C)c1OCCCNCC(C)O (racemic) [Compound 50, R,S-1N-[(2,6-dimethylphenoxy)propyl]amino-2-propanol]","MES, No. of protected animals/No. of used animals","[1]; dose 30 mg/kg b.w., time 0.5 h",1/1
same,"MES, No. of protected animals/No. of used animals",[1]; [3],3/3
same,"TOX, No. of animals exhibiting motor impairment/no. of used animals","[2]; mouse, in vivo, 30 mg/kg",3/4
same,"TOX, No. of animals exhibiting motor impairment/no. of used animals","[2]; mouse, in vivo, 300 mg/kg",4/4
"Cc1cccc(C)c1OCCCNC(C)CO (racemic) [Compound 51, R,S-2N-[(2,6-dimethylphenoxy)propyl]amino-1-propanol]","MES, No. of protected animals/No. of used animals","[1]; dose 30 mg/kg b.w., 0.5 h",1/1
same,"MES, No. of protected animals/No. of used animals","[1]; dose 100 mg/kg b.w., 0.5 h",3/3
same,"TOX, No. of animals exhibiting motor impairment/no. of used animals","[2]; mouse, in vivo, 30 mg/kg",2/4
same,"TOX, No. of animals exhibiting motor impairment/no. of used animals","[2]; mouse, in vivo, 300 mg/kg",4/4
"CCC(CO)NCCCOc1c(C)cccc1C.Cl (racemic) [Compound 55, R,S-2N-[(2,6-dimethylphenoxy)propyl]amino-1-butanol hydrochloride]","MES, No. of protected animals/No. of used animals","[1]; dose 30 mg/kg b.w., 0.5 h",1/1
same,"MES, No. of protected animals/No. of used animals","[1]; dose 100 mg/kg b.w., 0.5 h",3/3
same,"TOX, No. of animals exhibiting motor impairment/no. of used animals","[2]; mouse, in vivo, 100 mg/kg",8/8
same,"TOX, No. of animals exhibiting motor impairment/no. of used animals","[2]; mouse, in vivo, 300 mg/kg",4/4
"Cc1cccc(C)c1OCCCNCC(O)c1ccccc1 (racemic) [Compound 56, R,S-2N-[(2,6-dimethylphenoxy)propyl]amino-1-phenylethanol]","MES, No. of protected animals/No. of used animals","[1]; dose 100 mg/kg b.w., 0.5 h",1/1
same,"TOX, No. of animals exhibiting motor impairment/no. of used animals",[2]; [6],2/4
same,"TOX, No. of animals exhibiting motor impairment/no. of used animals",[2]; [7],8/8
same,"TOX, No. of animals exhibiting motor impairment/no. of used animals",[2]; [8],4/4
"Cc1cccc(Cl)c1OCCCNC(C)CO (racemic) [Compound 57, R,S-2N-[(2-chlor-6-methylphenoxy)propyl]amino-1-propanol]","TOX, No. of animals exhibiting motor impairment/no. of used animals",[2]; [6],4/4
same,"TOX, No. of animals exhibiting motor impairment/no. of used animals","[2]; mice, dose 30 mg/kg b.w., 4 h",1/2
same,"TOX, No. of animals exhibiting motor impairment/no. of used animals",[2]; [7],8/8
same,"TOX, No. of animals exhibiting motor impairment/no. of used animals",[2]; [8],4/4
"CCC(CO)NCCCOc1c(C)cccc1Cl.Cl (racemic) [Compound 58, R,S-2N-[(2-chlor-6-methylphenoxy)propyl]amino-1-butanol hydrochloride]","MES, No. of protected animals/No. of used animals","[1]; dose 100 mg/kg b.w., 0.5 h",2/3
same,"TOX, No. of animals exhibiting motor impairment/no. of used animals",[2]; [7],6/8
same,"TOX, No. of animals exhibiting motor impairment/no. of used animals",[2]; [8],4/4
same,"TOX, No. of animals exhibiting motor impairment/no. of used animals","[2]; mice, dose 300 mg/kg b.w., 4 h",1/1
"CNC(=O)C(C)NC(=O)COc1c(C)cccc1C (racemic) [Compound 67, D,L-2N-[(2,6-dimethylphenoxy)acetyl]aminopropionic acid N-methylamide]",responders at 100 mg/kg,"[1]; Mus musculus, dose 100 mg/kg b.w., 0.5 h, read-out: MES, No. of protected animals/No. of used animals (converted)",66.7%
same,responders at 300 mg/kg,"[1]; Mus musculus, dose 300 mg/kg b.w., 0.5 h, read-out: MES, No. of protected animals/No. of used animals",100%
same,"TOX, No. of animals exhibiting motor impairment/no. of used animals",[2]; [7],1/8
same,"TOX, No. of animals exhibiting motor impairment/no. of used animals",[2]; [8],4/4
